Data: paper PMC7594877, “Multidirectional in vitro and in cellulo studies as a tool for identification of multi-target-directed ligands aiming at symptoms and causes of Alzheimer’s disease” (Journal of Enzyme Inhibition and Medicinal Chemistry, 2020)
Where “and” joins values, the source holds several entries; their conditions need not be identical. Equal values may be shown once. Read-outs that look alike come from different tables or passages of the source. Marks after values point to notes of the source that are not given here.

Assays:
HepG2 cells = experiment: Cytotoxicity, MTS cell viability assay, HepG2; type: cell-based, human; settings: 24 h, read-out: LC50 (cell viability, MTS)
Description: (§1) The human liver carcinoma HepG2 cell line was purchased from American Type Culture Collection (LGC Standards, UK). The human neuroblastoma SH-SY5Y cell line was purchased from American Type Culture Collection (CRL-2266, Manassas, VA). The cells were grown in Advanced Dulbecco’s modified Eagle’s medium (Sigma, St. Louis, MO) supplemented with 10% foetal bovine serum (FBS) (HyClone, Logan, UT), 2 mM L-glutamine, 50 U/mL penicillin and 50 μg/mL streptomycin (Sigma, St. Louis, MO) in a humidified atmosphere of 95% air and 5% CO2 at 37 °C, and grown to 80% confluence. Compound 3 was prepared as a stock solution of 20 mM in DMSO and was used at concentrations of 1–100 µM in case of HepG2 treatment, and at concentrations of 0.25–5 µM in case of SH-SY5Y treatment.
(§2) HepG2 and SH-SY5Y cells were seeded in 96-well plates (2 × 10^4/well) and assessed by MTS ([3–(4,5-dimethylthiazol-2-yl)-5–(3-carboxymethoxyphenyl)-2–(4-sulfophenyl)-2H-tetrazolium, inner salt) assay for their response to compound 3. Cells were treated as described above, and cell viability was assessed after 24 h using the CellTiter 96® Aqueous One Solution Cell Proliferation Assay (Promega, Madison, WI), following the manufacturer’s instructions. Absorbance was measured with an automatic microplate reader (Tecan Safire, Switzerland) at a wavelength of 492 nm.

tau [1] = molecular target: T1, tau (Homo sapiens, UniProt P10636); experiment: In cellulo tau aggregation inhibition, Thioflavin S fluorescence in E. coli overexpressing tau; type: cell-based, Escherichia coli; settings: at 10 µM; mean of three experiments ± SEM
T1 construct: expressed in transfected cells; host or cells: E. coli BL21 (DE3) with pTARA (T7 RNA polymerase under pBAD) and pRKT42
Description: (§3) We screened multifunctional ligands from our in-house library for their anti-aggregating activity against Aβ and tau in the whole bacterial cells using the Thioflavin S (ThS) fluorescence assay. Bacterial cells overexpressing different proteins provide simple models that can be easily employed to monitor the mechanisms of protein aggregation related to a variety of conformational diseases[36]^,[37]. In our assay, E. coli system has been implemented to study the effect of potential Aβ42 and tau aggregation inhibitors within intact cells. The advantage of the test over in vitro tests is the fact that it considers the complexity of the cellular environment that plays a crucial role in tuning protein aggregation. This assay has been validated and successfully applied to assess the anti-aggregating properties of diverse chemical structures. Previously investigated tetrahydrobenzo[h][1,6] naphthyridine-6-chlorotacrine hybrid DP-128 was used as a reference compound[38]^,[39].
(§4) The assays were conducted according to the procedure described previously. All general chemicals were purchased from Sigma-Aldrich (St. Louis, MO) . Reagents for bacterial media were purchased from Conda (Sevilla, Spain). M9 minimal medium for 100 mL: 10 mL of salts 10× (0.68 g of Na2HPO4, 0.30 g of KH2PO4, 0.05 g of NaCl, 0.10 g of NH4Cl), 0.2 mL of 1 M MgSO4, 0.2 mL of 50 mM CaCl2, 2.5 mL of 20% glucose, and 87.1 mL of H2O.
(§5) E. coli competent cells BL21 (DE3) were transformed with the pET28a vector (Novagen, Inc., Madison, WI) carrying the DNA sequence of Aβ42 or with pTARA containing the RNA polymerase gene of T7 phage (T7RP) under the control of the promoter pBAD, then with pRKT42 vector encoding four repeats of tau protein in two inserts. For overnight culture preparation, 10 ml of M9 minimal medium containing 50 μg/mL of kanamycin (Aβ42) or 50 μg/mL of ampicillin and 12.5 μg/mL of chloramphenicol (tau) were inoculated with a colony of BL21 (DE3) bearing the plasmid Aβ42 or tau plasmids to be expressed at 37 °C and 180 rpm using an incubator shaker (Ovan, Barcelona, Spain). After overnight growth, the OD600 was usually 2 − 2.5. For expression of Aβ42 peptide/tau protein, 200 μL of overnight culture were transferred into Eppendorf tubes of 1.5 mL containing 790 μL of fresh M9 minimal medium with 50 μg/mL of kanamycin1 mM of isopropyl 1-thio-β-D-galactopyranoside (IPTG) (Aβ42) or 50 μg/mL of ampicillin, 12.5 μg/mL of chloramphenicol, 0.25% of arabinose (tau), and 25 μM of ThS and 10 μL of reference, tested compounds (1 mM in DMSO, final concentration: 10 μM) or DMSO. The samples were grown for 24 h at 37 °C and 180 rpm using an incubator shaker (Ovan). The samples with DMSO were prepared as a negative control (maximum level of Aβ42/tau, 0% of inhibition). In the positive controls, the M9 medium without IPTG (minimal level of Aβ42) or arabinose (minimal level of tau) was used. For absorbance and fluorescence determination, 200 μL of each Eppendorf tube was transferred in triplicate into 96-well plate. Finally, the fluorescence emission at 520 nm, when exciting at 440 nm and absorbance at 600 nm was recorded using the multi-mode microplate reader (Beckman Counter, Brea, CA). The absorbance at 600 nm (OD600) of these samples was assessed to check the bacterial growth and potential intrinsic toxicity of the tested compounds. Final data are the average of three independent experiments. DP-128 was used as a reference compound[38].

h5-HT6 = molecular target: h5-HT6; design: method as in PMID 27560283, PMID 29384656; settings: read-out: 5-HT6 Ki; cited from earlier work
Aβ42 [2] = molecular target: T2, Aβ42 (Homo sapiens, UniProt P05067); experiment: In cellulo Aβ42 aggregation inhibition, Thioflavin S fluorescence in E. coli overexpressing Aβ42; type: cell-based, Escherichia coli; settings: at 10 µM; mean of three experiments ± SEM
T2 construct: expressed in transfected cells; host or cells: E. coli BL21 (DE3) with pET28a-Aβ42, IPTG-induced
Description: as §3, §4, §5

eqBuChE = settings: read-out: eqBuChE IC50; cited from earlier work
hAChE = settings: read-out: hAChE IC50; cited from earlier work
human BACE1 = molecular target: T3, human BACE1 (Homo sapiens, UniProt P56817); experiment: In vitro inhibition of human BACE1, FRET assay; type: biochemical; settings: mean of three experiments ± SEM; read-out: hBACE1 IC50
T3 construct: purchased Panvera, Madison, WI (BACE1 FRET Assay Kit); host or cells: baculovirus-expressed
Description: To further explore the multifunctional profile of the ligands, we screened them for their inhibitory activity against human BACE1 using spectrofluorometric assay (fluorescence resonance energy transfer (FRET)-based). […] Therefore, BACE1 inhibitors are now being tested in earlier stages of AD and in asymptomatic subjects at risk of AD, with the hope of blocking the disease process before it becomes irreversible.
BACE1 FRET Assay Kit (Panvera, Madison, WI) was performed according to the manufacturer’s protocol with small modifications. The Kit includes purified baculovirus-expressed BACE1 and specific peptide substrate (Rh-[…]-quencher), based on the “Swedish” mutant of APP. The analysis was carried, using 384-well black microplates and a microplate reader (EnSpire Multimode; PerkinElmer, Waltham, MA). The wavelength was optimised for the 553 nm excitation and 576 nm emission. Stock solutions of all test compounds were prepared in DMSO and further diluted with assay buffer (50 mM sodium acetate; pH 4.5). In the first step, 10 μL of BACE1 substrate was mixed with 10 μL of test compound (or assay buffer; i.e. blank sample), then 10 μL of the enzyme (1 U/mL) was added to start the reaction. After 60 min of incubation at 25 °C, 10 μL of stop solution (2.5 M sodium acetate) was applied to stop the reaction. The fluorescence signal was read at 576 nm. Percent of inhibition was calculated from [1 − (S60 − S0)/(C60 − C0)] × 100, where S0 and S60 are fluorescence intensities of the test sample (enzyme, substrate, test compound) at the beginning of the reaction and after 60 min, respectively, while C0 and C60 are analogical fluorescence intensities of the blank sample (enzyme, substrate, buffer). […] Each compound was analysed in triplicate. Commercially available BACE1 Inhibitor IV (Calbiochem, Merck; Nottingham, UK) was used as the reference compound. The IC50 values were calculated using nonlinear regression (GraphPad Prism 5 [GraphPad Software, San Diego, CA, 5.00]) by plotting the residual enzyme activities against the applied inhibitor concentration.

SH-SY5Y cells = experiment: Cytotoxicity, MTS cell viability assay, SH-SY5Y; type: cell-based, human; settings: 24 h, read-out: LC50 (cell viability, MTS)
Description: as §1, §2

Aβ42 [3] = molecular target: T2, Aβ42; design: method as in di Pietro et al. 38; settings: at 10 µM; ref di Pietro et al. 38; cited from earlier work
tau [4] = molecular target: T1, tau; design: method as in di Pietro et al. 38; settings: at 10 µM; ref di Pietro et al. 38; cited from earlier work

T2 sequence (P05067 672-713): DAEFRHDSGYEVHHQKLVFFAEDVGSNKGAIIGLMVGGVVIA
T1 sequence (P10636 other isoform, or with tags, fused parts or gaps): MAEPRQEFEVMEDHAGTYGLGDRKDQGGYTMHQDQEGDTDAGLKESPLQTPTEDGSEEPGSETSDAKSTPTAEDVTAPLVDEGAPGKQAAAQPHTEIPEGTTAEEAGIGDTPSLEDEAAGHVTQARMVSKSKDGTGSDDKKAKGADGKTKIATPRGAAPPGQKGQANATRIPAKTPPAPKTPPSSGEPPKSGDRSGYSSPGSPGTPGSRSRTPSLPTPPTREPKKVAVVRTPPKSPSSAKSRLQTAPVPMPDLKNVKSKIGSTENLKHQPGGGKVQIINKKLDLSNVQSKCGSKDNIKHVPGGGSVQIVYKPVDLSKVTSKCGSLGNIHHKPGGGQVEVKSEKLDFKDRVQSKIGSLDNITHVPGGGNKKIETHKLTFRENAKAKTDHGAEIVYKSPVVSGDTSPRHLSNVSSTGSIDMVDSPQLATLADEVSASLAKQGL
T3 sequence (P56817 46-501): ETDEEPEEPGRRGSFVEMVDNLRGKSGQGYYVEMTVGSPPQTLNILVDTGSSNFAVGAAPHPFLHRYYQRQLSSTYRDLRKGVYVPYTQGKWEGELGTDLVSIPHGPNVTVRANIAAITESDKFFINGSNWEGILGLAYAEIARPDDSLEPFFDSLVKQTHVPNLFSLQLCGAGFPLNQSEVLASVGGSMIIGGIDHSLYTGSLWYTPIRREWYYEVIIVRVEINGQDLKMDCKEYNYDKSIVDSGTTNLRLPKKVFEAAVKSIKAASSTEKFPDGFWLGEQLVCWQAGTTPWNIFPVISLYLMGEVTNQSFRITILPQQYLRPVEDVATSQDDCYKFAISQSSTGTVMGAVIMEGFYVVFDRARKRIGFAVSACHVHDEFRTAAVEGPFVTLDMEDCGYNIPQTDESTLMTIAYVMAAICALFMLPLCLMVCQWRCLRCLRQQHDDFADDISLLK

Row | Structure (SMILES) | CC50 (HepG2 cells) [nM] | In cellulo tau inhibition % (tau [1]) | Ki (h5-HT6) [nM] | In cellulo Aβ42 inhibition % (Aβ42 [2]) | IC50 (eqBuChE) [nM] | IC50 (hAChE) [nM] | IC50 (human BACE1) | CC50 (SH-SY5Y cells) [nM] | In cellulo Aβ42 inhibition % (Aβ42 [3]) | In cellulo tau inhibition % (tau [4])
1 | O=S(=O)(c1ccccc1)n1ccc2c(N3CCN(CCCCCCNc4c5c(nc6ccccc46)CCCC5)CC3)cccc21 [Compound 3] | 6400 | 38% and 37.6 ± 2.4% | 2 | 30% and 29.7 ± 4.0% | 8 | 13 | 7300 nM and 7310 nM | 1000 |  | 
2 | O=C(NCCCCCCCCNc1c2c(nc3cc(Cl)ccc13)CCCC2)c1ccc2nc(-c3ccc(Cl)cc3)c3c(c2c1)NCCC3 [DP-128] |  |  |  |  |  |  |  |  | 77.5 ± 0.9^d % | 68.7 ± 0.5^d %
